We go through one compound from patent US9326945B2, “Apixaban formulations” (Bristol-Myers Squibb Company, priority 2010, dated 2016).

Usually solubility stands for the concentration that dissolves in the medium under given conditions.

In brackets after ≈: the same amount, converted by molar mass.

A short description of series [1]: Aqueous solubility of apixaban. Type of series: physicochemical.
Series [2] can be described thus: Contact angle of apixaban drug substance with water. The series is classed as physicochemical.

On to `COc1ccc(-n2nc(C(N)=O)c3c2C(=O)N(c2ccc(N4CCCCC4=O)cc2)CC3)cc1` [apixaban, 4,5,6,7-tetrahydro-1-(4-methoxyphenyl)-7-oxo-6-[4-(2-oxo-1-piperidinyl)phenyl]-1H-pyrazolo[3,4-c]pyridine-3-carboxamide], for which, in series [1] (10 mg apixaban dose), the dose/solubility ratio was 250 mL. Also, the solubility in series [1] (aqueous medium, at all physiological pH) is 40 µg/mL (≈ 87.1 µM). In series [2], the contact angle amounted to 54 °.
